The results in this text go back to PubChem BioAssay AID1013 (Columbia University Molecular Screening Center, 2008).

Active and inactive are the calls of the source. No rule for the calls is given here.

A short description of the experiment: inhibitors of TNFa-induced VCAM1 expression, confirmation, imaging, TNFa stimulus, retest and dose response (AID 1013).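 As to cell count: compound on cells 1 h before TNFa then 24 h more.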 The following applies: TNFa-stimulated cells, VCAM1 expression imaging; for inhibition: at 2 µM, stronger effect = higher value; for cell count: at 10 µM, stronger effect = lower value.

The inhibition is the change of the read-out against control, counted positive when it falls. Take `COc1ccc(C)cc1S(=O)(=O)Nc1cccc(SC)c1`: the inhibition was 3.5% (inactive). For `CC(NC(=O)COC(=O)Cc1ccsc1)C1CC2CCC1C2` (configuration not stated), the inhibition is 3.4% (inactive). On the same count and under the same terms, the result for `Nc1ccccc1NC(=O)c1ccccc1N` reads -3.2% (inactive); that for `COc1ccccc1-c1cn(S(=O)(=O)c2ccc(C)cc2)nc1N`, 2.2% (inactive); that for `O=C1CC(N2CCN(Cc3ccc4c(c3)OCO4)CC2)C(=O)N1c1ccccc1` (configuration not stated), -11.2% (inactive). For `CCOc1ccc(C(=O)C(c2ccccc2)N2CCOCC2)cc1` (configuration not stated), the inhibition is -17.7% (inactive).

For `C=C(C)c1cccc(C(C)(C)NC(=O)Nc2ncccn2)c1`, the inhibition was -2.7% (inactive). Consider `COc1ccccc1-n1cnc2cc(NCc3cccs3)ccc21`, for which the inhibition was -3.5% (inactive). With `Cc1cccnc1N(C(=O)Nc1ccccc1)C1=NCC(C)(C)S1`, the inhibition is -11.8% (inactive).

Turning to `CN(CC(=O)NCc1ccncc1)S(=O)(=O)c1ccc(F)cc1`, the inhibition was 0.2% (inactive). Consider `O=c1c2ccccc2nnn1CSc1ncnc2ccccc12`, for which the inhibition was 15.2% (inactive). As to `COc1ccc(CN2C(=O)[C@@H]3C(c4ccc(F)cc4)=NO[C@@H]3C2=O)cc1`, the inhibition is -6.1% (inactive). As for `CCOC(=O)C1=C(CSc2nc3c(cc2C#N)CN(C)CC3)OC(N)=C(C#N)C1c1ccccc1` (configuration not stated), the inhibition is -5.4% (inactive). Still for that read-out and setting: the result for `COc1ccc(-c2nc(-c3ccc(NC(=O)c4ccc(Br)o4)cc3)no2)cc1OC` reads 11.9% (inactive). Take `Cc1cccc(NC(=O)CC2SC(=O)N(c3ccccc3)C2=O)c1` (configuration not stated): the inhibition was 3.9% (inactive). Consider `C=CCn1c(N)c(C(=O)OCC(C)C)c2nc3ccccc3nc21`, for which the inhibition was -3.5% (inactive).

Take `Cc1ccccc1-c1cc(-c2ccccc2O)on1`: the inhibition was 25.2% (inactive).

Consider `COc1ccc(CC(=O)OCc2cc3ccc(C)cc3[nH]c2=O)cc1`, for which the inhibition is 6.4% (inactive). Regarding `COC(=O)C1C(=O)C2=C(CC1C)NC(=O)CC2c1cccc(C)c1` (configuration not stated), the inhibition is -3.9% (inactive). `CC1Oc2ccccc2C=C1/C=C1/SC(N2CCOCC2)=NC1=O` (configuration not stated): the inhibition was -2.1% (inactive). Regarding `Cn1cc([N+](=O)[O-])c(C(=O)Nc2ccc3c(c2)OCCO3)n1`, the inhibition was 10.7% (inactive).

Take `CCOc1ccccc1N1CCN(C(=O)c2cccc(-c3ccc(O)cc3)c2)CC1`: the inhibition was -6.4% (inactive). Take `O=C(c1ccc(Cl)cc1)N1CCCOC1`: the inhibition was -7.1% (inactive). On the same count and under the same terms, the result for `O=C(O)c1cc2nc3c(c(C(F)(F)F)n2n1)CCc1ccccc1-3` reads 4.4% (inactive); that for `O=c1ccc(Oc2nc(N3CCOCC3)nc(N3CCOCC3)n2)nn1-c1ccccc1`, 9% (inactive); that for `CCOC1=NC(C(=O)O)c2ccccc2/C(=C(/C)Cl)N1` (configuration not stated), 7.8% (inactive).

For `CC1=C(C#N)C(Nc2cccc(C)n2)(C(F)(F)F)C(=O)N1` (configuration not stated), the inhibition was -1% (inactive). For the compound `O=C(COc1ccccc1-c1ccccc1)N/N=C/c1cccc2ccccc12`, the inhibition is 76.4% (inactive) and the cell count came out at 87.5%.

For `O=C(O)Cc1ccc(NC(=O)C2CC=CCC2C(=O)O)cc1` (configuration not stated), the inhibition was 4.4% (inactive).

Take `CCn1c(SCC(=O)Nc2ccc(C(=O)OC)cc2)nnc1-c1cccs1`: the inhibition is 10.1% (inactive). As for `CCCn1nc([N+](=O)[O-])c(C(C#N)c2nc3ccccc3s2)c(Cl)c1=O` (configuration not stated), the inhibition is 18.2% (inactive). The same measure, in the same setting: the result for `COc1cc(NC(=O)c2ccc(COCC(F)(F)F)o2)cc(OC)c1OC` reads 20.7% (inactive); that for `CC(C)(C)NC(=O)CSc1nsc(SCC(=O)NC(C)(C)C)c1C#N`, 1.8% (inactive); that for `CCOc1ccc(-n2c(SCC(=O)Nc3ccc(OC)cc3)nc3c(c2=O)SCC3)cc1`, -17% (inactive). As to `Cc1csc(NC(=O)CSc2nnc(-c3ccc(S(=O)(=O)N4CCCC4)cc3)o2)n1`, the inhibition is 12.9% (inactive). As for `O=C(CN1CCN(c2nc(-c3ccc(F)cc3)cs2)CC1)Nc1ccc2c(c1)OCO2`, the inhibition was 16.2% (inactive).

In the case of `O=C(CN1CCSCC1)N1CCc2[nH]c3ccc(Br)cc3c2C1`, the inhibition was -11.1% (inactive).

Take `Cc1ccc(-c2nn(C(C)(C)C)c3ncnc(N)c23)cc1`: the inhibition was -0.9% (inactive). Take `O=C(CN1CCC(c2nc3ccccc3s2)CC1)NCc1cccs1`: the inhibition is -3.1% (inactive). `CC/C(=N\NC(=O)CNC(=O)/C=C/c1ccco1)c1ccccc1`: the inhibition was -3.4% (inactive).

In the case of `Cc1cccc(N=C2NC(=O)CS2)c1C`, the inhibition is -7.6% (inactive). As to `CC1CCN(C(=O)C2c3ccccc3C(=O)N3CCc4ccccc4C23)CC1` (configuration not stated), the inhibition was 3.6% (inactive). As for `CCCc1[nH]nc2c1C(c1cccnc1)C(C#N)=C(N)O2` (configuration not stated), the inhibition was -7.9% (inactive). Still for that read-out and setting: the result for `CC(=O)c1cccc(Nc2nc(-c3cccc([N+](=O)[O-])c3)cs2)c1` reads 9.3% (inactive); that for `CCOC(=O)c1cnn(-c2nc(CC)nc3sc4c(c23)CCC4)c1N`, -10.3% (inactive); that for `COc1cc(/C=N/NC(=O)Nc2ccccc2)ccc1OCCOc1ccccc1C`, 33.1% (inactive). Turning to `Cc1ccccc1Cn1nc(C)c(NC(=O)c2cc(-c3cccs3)on2)c1C`, the inhibition is -4.7% (inactive). On to `Cc1nc(S(=O)(=O)N(C)Cc2ccccc2)c(C#N)c(C)c1Cl`, for which the inhibition was 1.7% (inactive). With `CCOC(=O)c1ccc(-n2c(=S)sc3c(=O)[nH]c(C)nc32)cc1`, the inhibition was -10.7% (inactive). In the case of `Clc1ccc(-n2ncc3c(NCc4ccc5c(c4)OCO5)ncnc32)cc1`, the inhibition is 5.1% (inactive). For the compound `Cc1cc(C)cc(OCc2nnc(SCC(=O)N3CCN(c4ccccc4)CC3)o2)c1`, the inhibition was -2% (inactive).

Take `COc1ccc(CSc2nc3ccccc3[nH]2)cc1`: the inhibition is -2.5% (inactive).

For `Cc1nc2ccccc2n1CCCOc1ccccc1`, the inhibition was -0.7% (inactive). For `N#CCc1nc2c3c4c(sc3ncn2n1)CCCC4`, the inhibition is 62.9% (inactive) and the cell count was 87.3%. On to `COc1ccc(C(c2sc3ncnn3c2O)N2CC(C)OC(C)C2)cc1OC` (configuration not stated), for which the inhibition is 14.8% (inactive).

As for `CCOC(=O)c1oc2ccccc2c1NC(=O)Cc1cccs1`, the inhibition was -16.8% (inactive). Still for that read-out and setting: the result for `CN=c1sc2ccccc2n1CC(O)COc1ccccc1` (configuration not stated) reads -13.2% (inactive).

For `CN(Cc1ccccc1)S(=O)(=O)c1ccc(NC(=S)NC(=O)C2CCCC2)cc1`, the inhibition is 17.2% (inactive). Consider `OCCCCNc1cccc2ccccc12`, for which the inhibition is -3.2% (inactive).

Consider `Cc1ccc(N/N=C/c2ccc(N3CCOCC3)cc2)cc1C`, for which the inhibition was -4.8% (inactive).

`CCCCSc1nc(C)cc(SCC(=O)N/N=C/c2cccc(OC)c2O)n1`: the inhibition was 22.8% (inactive). `NC(=S)N/N=C/c1ccc(-c2cc(Cl)ccc2Cl)o1`: the inhibition is 34.6% (inactive) and the cell count came to 90.8%. Take `Cc1ccc(Nc2nc(CSc3nnnn3C)cs2)cc1`: the inhibition was -5.5% (inactive). Consider `Cc1ccc(F)cc1NC(=O)c1ccc2c(c1)OCO2`, for which the inhibition was -22.8% (inactive). For the compound `S=c1[nH]nc(COc2ccc3c(c2)OCO3)n1-c1ccccc1`, the inhibition is 1% (inactive). As to `Cc1cnc(NC(=O)C2CCCC2)s1`, the inhibition is 14.1% (inactive). Same read-out and setting: the result for `C(=N\Nc1nc2ccccc2s1)/c1cccs1` reads 5.1% (inactive); that for `Nc1sccc1C(=O)c1ccc(Cl)cc1`, -3.9% (inactive). For `NC(=O)c1c(NC(=O)Cc2cccs2)sc2c1CCC2`, the inhibition is -16.5% (inactive). As for `Cc1n[nH]c(=O)nc1NCc1ccccc1`, the inhibition is -9.9% (inactive).

For `O=C(c1ccc2c(c1)ncn2C1CCCCC1)N1CCC2(CC1)OCCO2`, the inhibition was 4.9% (inactive).

Regarding `CC(C)(C)SCCNC(=O)CN(c1ccc(F)cc1)S(C)(=O)=O`, the inhibition is -12.2% (inactive).

With `CN1C(=O)N(C)C(=O)C2(Cc3ccccc3N3CCOCC32)C1=O` (configuration not stated), the inhibition was 6.4% (inactive).

Consider `Cc1cc(C)cc(NC(=O)CC2NCCNC2=O)c1` (configuration not stated), for which the inhibition is 7.4% (inactive).

As for `N#Cc1cc2c(nc1SCC(=O)N1CCCCC1)CCCC2`, the inhibition is -5.8% (inactive). As for `COc1cc2[nH]cc(C(=O)NCCc3ccccc3)c(=O)c2cc1OC`, the inhibition was -5.6% (inactive). Same read-out and setting: the result for `CC(N)Cc1ccccc1Sc1ccc(O)cc1` (configuration not stated) reads -14.6% (inactive); that for `CCCOC(=O)c1ccc(NC(=O)Oc2ccccc2)cc1`, -2.5% (inactive). Consider `COc1ccc(CN2CCCCC2C(=O)Nc2ccc(OC)c(OCC(C)C)c2)cc1OC` (configuration not stated), for which the inhibition is -5.8% (inactive).

For the compound `O=S(=O)(c1ccc2c(c1)OCCCO2)N1CCNCC1`, the inhibition is 0.5% (inactive).

Take `CC(=O)Nc1nc2cc3c(cc2s1)OCO3`: the inhibition is -1.4% (inactive).

On to `Cc1ccc(NC(=O)c2oc3c(c2C)C(=O)CC(C)(C)C3)cc1`, for which the inhibition was -0.4% (inactive). Turning to `CCOc1ccc(C2/C(=C(\O)c3c(C)[nH]c(C(=O)OC)c3C)C(=O)C(=O)N2CCN(C)C)cc1` (configuration not stated), the inhibition was -5.6% (inactive). Regarding `COc1ccc2[nH]c(=O)c(CN(C(=O)c3ccncc3)C(C)C)cc2c1`, the inhibition is -5.2% (inactive).

`COc1ccc(-c2cc3ccc(OCc4nn[nH]n4)cc3oc2=O)cc1OC`: the inhibition was -18.3% (inactive). In the case of `CCOC(=O)C1=C(c2ccccc2)OC(N)=C(C#N)C1c1ccco1` (configuration not stated), the inhibition was 13.3% (inactive). Regarding `N#Cc1nc(-c2ccco2)oc1N1CCOCC1`, the inhibition was -13.5% (inactive).

For the compound `COc1ccc(Cn2nnnc2C(c2cccs2)N2CCSCC2)cc1` (configuration not stated), the inhibition is -1.3% (inactive). Same read-out and setting: the result for `CCc1cccc(CC)c1NC(=O)C1SC(=Nc2ccccc2C)C(c2nc3ccccc3s2)=C1N` (configuration not stated) reads 3.9% (inactive).
